# Measured values: patent US20070054916A1, “Aryl nitrogen-containing bicyclic compounds and methods of use” (Amgen Inc., priority 2004, published 2007)
# Tested on: production of TNF by monocytes activated with bacterial lipopolysaccharide (LPS)
# Assay: Lipopolysaccharide-activated monocyte TNF production assay
# Type: cell-based
# Conditions: Homo sapiens, read-out: IC50 values in the monocyte assay (LPS induced TNF release)
# Method: Lipopolysaccharide-Activated Monocyte TNF Production Assay
# Test compounds were evaluated in vitro for the ability to inhibit the production of TNF by monocytes activated with bacterial lipopolysaccharide (LPS). Fresh residual source leukocytes (a byproduct of plateletpheresis) were obtained from a local blood bank, and peripheral blood mononuclear cells (PBMCs) were isolated by density gradient centrifugation on Ficol-Paque Plus (Pharmacia). PBMCs were suspended at 2×10^6/ml in DMEM supplemented to contain 2% FCS, 10 mM, 0.3 mg/ml […], 100 U/ml penicillin G and […] streptomycin sulfate (complete media). Cells were plated into Falcon flat bottom, 96 well culture plates (200 μl/well) and cultured overnight at 37° C. and 6% CO2. Non-adherent cells were removed by washing with 200 μl/well of fresh medium. Wells containing adherent cells (˜70% monocytes) were replenished with 100 μl of fresh medium.
# Preparation of Test Compound Stock Solutions
# Test compounds were dissolved in […]. Compound stock solutions were prepared to an initial concentration of […]. Stocks were diluted initially to 20-200 μM in complete media. Nine two-fold serial dilutions of each compound were then prepared in complete medium.
# Treatment of Cells with Test Compounds and Activation of TNF Production with Lipopolysaccharide
# One hundred microliters of each test compound dilution were added to microtiter wells containing adherent monocytes and 100 μl complete medium. Monocytes were cultured with test compounds for 60 min at which time 25 μl of complete medium containing 30 ng/ml lipopolysaccharide from E. coli K532 were added to each well. Cells were cultured an additional 4 hrs. Culture supernatants were then removed and TNF presence in the supernatants was quantified using an ELISA.
# Flat bottom, 96 well Corning High Binding ELISA plates were coated overnight (4° C.) with 150 μL/well of 3 μg/ml murine anti-human TNF-α MAb (R&D Systems #MAB210). Wells were then blocked for 1 hr at room temperature with 200 μL/well of CaCl2-free ELISA buffer supplemented to contain 20 mg/ml BSA (standard ELISA buffer: […], 150 mM NaCl, 2 mM CaCl2, 0.15 mM thimerosal, pH 7.4). Plates were washed and replenished with 100 μl of test supernatants (diluted 1:3) or standards. Standards consisted of eleven 1.5-fold serial dilutions from a stock of 1 ng/ml recombinant human TNF (R&D Systems). Plates were incubated at room temperature for 1 hr on orbital shaker (300 rpm), washed and replenished with 100 μl/well of 0.5 ug/ml goat anti-human TNF-α (R&D systems #AB-210-NA) biotinylated at a 4:1 ratio. Plates were incubated for 40 min, washed and replenished with 100 μl/well of alkaline phosphatase-conjugated streptavidin (Jackson ImmunoResearch #016-050-084) at 0.02 ug/ml. Plates were incubated 30 min, washed and replenished with 200 μl/well of 1 mg/ml of p-nitrophenyl phosphate. After 30 min, plates were read at 405 nm on a Vmax plate reader.
# Standard curve data were fit to a second order polynomial and unknown TNF-α concentrations determined from their OD by solving this equation for concentration. TNF concentrations were then plotted vs. test compound concentration using a second order polynomial. This equation was then used to calculate the concentration of test compounds causing a 50% reduction in TNF production.
row,SMILES,IC50
1,"Cc1ccc(C(=O)Nc2ccc(C(F)(F)F)cc2)cc1-c1ccc2nc(N(C)C)ncc2c1 [Example 319, 3-(2-(dimethylamino)-6-quinazolinyl)-4-methyl-N-(4-(trifluoromethyl)phenyl)benzamide]",≤ 25 µM
2,"Cc1ccc(C(=O)Nc2cc(C(F)(F)F)ccc2C(F)(F)F)cc1-c1ccc2nc(N)ncc2c1 [Example 77, 3-(2-amino-6-quinazolinyl)-N-(2,5-bis(trifluoromethyl)phenyl)-4-methylbenzamide]",≤ 25 µM
3,"Cc1ccc(C(=O)Nc2nc3cc(Cl)ccc3o2)cc1-c1ccc2nc(N)ncc2c1 [Example 342, 3-(2-amino-6-quinazolinyl)-N-(5-chloro-1,3-benzoxazol-2-yl)-4-methylbenzamide]",≤ 25 µM
4,"CNc1ncc2cc(-c3cc(C(=O)Nc4ccc(Cl)c(C(F)(F)F)c4)ccc3C)ccc2n1 [Example 12, N-(4-chloro-3-(trifluoromethyl)phenyl)-4-methyl-3-(2-(methylamino)-6-quinazolinyl)benzamide]",≤ 25 µM
5,"Cc1cc(F)c(C(=O)Nc2cccc(C(F)(F)F)c2)cc1-c1ccc2nc(NC3CC3)ncc2c1 [Example 39, 5-(2-(cyclopropylamino)-6-quinazolinyl)-2-fluoro-4-methyl-N-(3-(trifluoromethyl)phenyl)benzamide]",≤ 25 µM
6,Cc1ccc(C(=O)Nc2cc(C(=O)NCCN3CCOCC3)cc(C(F)(F)F)c2)cc1-c1ccc2nc(N)ncc2c1 [Example 6],≤ 25 µM
7,CNc1ncc2cc(-c3cccc(NC(=O)c4cc(C(F)(F)F)cc(C(F)(F)F)c4)c3C)cnc2n1 [Example 221],≤ 25 µM
8,"Cc1cccc(C)c1-c1ccc2nc(N)ncc2c1 [Example 535, 6-(2,6-dimethylphenyl)-2-quinazolinamine]",≤ 25 µM
9,"COc1ccc(OC)c(NC(=O)c2ccc(C)c(-c3ccc4nc(N)ncc4c3)c2)c1 [Example 148, 3-(2-amino-6-quinazolinyl)-N-(2,5-bis(methyloxy)phenyl)-4-methylbenzamide]",≤ 25 µM
10,"Cc1ccc(C(=O)NCc2ccccn2)cc1-c1ccc2nc(N)ncc2c1 [Example 426, 3-(2-amino-6-quinazolinyl)-4-methyl-N-(2-pyridinylmethyl) benzamide]",≤ 25 µM
11,"CNc1ncc2cc(-c3cc(C(=O)NCc4ccccn4)ccc3C)cnc2n1 [Example 185, 4-methyl-3-(2-(methylamino)pyrido [2,3-d]pyrimidin-6-yl)-N-(2-pyridinylmethyl) benzamide]",≤ 25 µM
12,Cc1ccc(C(=O)Nc2cccc(C(F)(F)F)c2F)cc1-c1ccc2nc(NC3CCN(C)CC3)ncc2c1 [Example 25],≤ 25 µM
13,"Cc1c(NC(=O)c2cc(C(F)(F)F)cc(C(F)(F)F)c2)cccc1-c1ccc2nc(N)ncc2c1 [Example 220, N-(3-(2-amino-6-quinazolinyl)-2-methylphenyl)-3,5-bis(trifluoromethyl)benzamide]",≤ 25 µM
14,"COc1cccc(NC(=O)c2ccc(C)c(-c3ccc4nc(N)ncc4c3)c2)c1OC [Example 283, 3-(2-amino-6-quinazolinyl)-N-(5,6-bis(methyloxy)-phenyl)-4-methylbenzamide]",≤ 25 µM
15,"Cc1ccc(C(=O)Nc2cc(C(F)(F)F)ccc2N2CCOCC2)cc1-c1ccc2nc(N)ncc2c1 [Example 79, 3-(2-amino-6-quinazolinyl)-4-methyl-N-(2-(4-morpholinyl)-5-(trifluoromethyl)phenyl)benzamide]",≤ 25 µM
16,"CNc1ncc2cc(-c3cc(C(=O)Nc4cccc(C(F)(F)F)c4)ccc3C)cnc2n1 [Example 167, 4-methyl-3-(2-(methylamino)pyrido[2,3-d]pyrimidin-6-yl)-N-(3-(trifluoromethyl)phenyl)benzamide]",≤ 25 µM
17,"COc1ccc(NC(=O)c2ccc(C)c(-c3ccc4nc(N)ncc4c3)c2)c(OC)c1 [Example 270, 3-(2-amino-6-quinazolinyl)-N-(2,4-bis(methyloxy)phenyl)-4-methylbenzamide]",≤ 25 µM
18,"CC(C)c1cccc(C(=O)Nc2cc(-c3ccc4nc(N)ncc4c3)ccc2F)c1 [Example 491, N-(5-(2-amino-6-quinazolinyl)-2-fluorophenyl)-3-(1-methylethyl)benzamide]",≤ 25 µM
19,"CNc1ncc2cc(-c3cc(NC(=O)c4cccc(C(F)(F)F)c4)ccc3C)cnc2n1 [Example 199, N-(4-methyl-3-(2-(methylamino)pyrido[2,3-d]pyrimidin-6-yl)phenyl)-3-(trifluoromethyl) benzamide]",≤ 25 µM
20,"Cc1ccc(C(=O)Nc2ncccc2OCCCN2CCCCC2)cc1-c1ccc2nc(N)ncc2c1 [Example 362, 3-(2-amino-6-quinazolinyl)-4-(methyl-N-(3-((3-1-piperidinyl)propyl)oxy)-2-pyridinyl)benzamide]",≤ 25 µM
21,"Nc1ncc2cc(-c3ccc(F)c(NC(=O)C4CC4)c3)ccc2n1 [Example 486, N-(5-(2-amino-6-quinazolinyl)-2-fluorophenyl)cyclopropanecarboxamide]",≤ 25 µM
22,"CN1CC[C@@H](N(C)c2ccc(C(F)(F)F)cc2NC(=O)c2cc(-c3ccc4nc(N)ncc4c3)ccc2F)C1 [Example 419, 5-(2-amino-6-quinazolinyl)-2-fluoro-N-(2-(methyl((3R)-1-methyl-3-pyrrolidinyl)amino)-5-(trifluoromethyl)phenyl)benzamide]",≤ 25 µM
23,"Nc1ncc2cc(-c3cc(C(=O)Nc4cc(C(F)(F)F)ccc4N4CCCC4)ccc3Cl)ccc2n1 [Example 155, 3-(2-amino-6-quinazolinyl)-4-chloro-N-(2-(1-pyrrolidinyl)-5-(trifluoromethyl)phenyl)benzamide]",≤ 25 µM
24,"Cc1ccc(C(=O)Oc2c(F)c(F)c(F)c(F)c2F)cc1-c1ccc2nc(N)ncc2c1 [Example 423, Perfluorophenyl-3-(2-aminoquinazolin-6-yl)-4-methylbenzoate]",≤ 25 µM
25,"COc1ccc(NC(=O)c2ccc(C)c(-c3ccc4nc(N)ncc4c3)c2)c(OC)n1 [Example 233, 3-(2-amino-6-quinazolinyl)-N-(2,6-bis(methyloxy)-3-pyridinyl)-4-methylbenzamide]",≤ 25 µM
26,"Cc1c(NC(=O)c2ccc(Cl)c(-c3ccc4nc(N)ncc4c3)c2)cccc1C(F)(F)F [Example 141, 3-(2-amino-6-quinazolinyl)-4-chloro-N-(2-methyl-3-(trifluoromethyl)phenyl)benzamide]",≤ 25 µM
27,"Cc1ccc(C(=O)Nc2cccc(C(F)(F)F)c2F)cc1-c1ccc2nc(N)ncc2c1 [Example 19, 3-(2-amino-6-quinazolinyl)-N-(2-fluoro-3-(trifluoromethyl)phenyl)-4-methylbenzamide]",≤ 25 µM
28,"COc1ccc(C(=O)Nc2ccccc2)cc1NC(=O)c1ccc(C)c(-c2ccc3nc(N)ncc3c2)c1 [Example 145, 3-(2-amino-6-quinazolinyl)-4-methyl-N-(2-(methyloxy)-5-((phenylamino)carbonyl)phenyl) benzamide]",≤ 25 µM
29,"Cc1ccc(C(=O)NCCc2cccnc2)cc1-c1ccc2nc(N)ncc2c1 [Example 427, 3-(2-amino-6-quinazolinyl)-4-methyl-N-(2-(3-pyridinyl)ethyl)b enzamide]",≤ 25 µM
30,"Cc1ccc(C(=O)Nc2cccc(C(F)(F)F)c2C)cc1-c1ccc2nc(NC3CCN(C)CC3)ncc2c1 [Example 36, 4-methyl-3-(2-((1-methyl-4-piperidinyl)amino)-6-quinazolinyl)-N-(2-methyl-3-(trifluoromethyl)phenyl)benzamide]",≤ 25 µM
